According to patent publication US12077503B2, “Substituted cyclic amides and their use as herbicides” (FMC CORPORATION, priority 2015, dated 2024):

How the values were obtained:
Type in all cases: in vivo
[1] = tested on: ducksalad (Heteranthera limosa); assay: Test B flooded paddy test; settings: Heteranthera limosa, 250 g ai/ha, Flood; 0 to 100 scale where 0 is no effect and 100 is complete control; read-out: Ducksalad plant response rating
Method in brief: (§1)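 Greenhouse paddy pots with 2-leaf stage plants received compound by direct addition to floodwater 3 cm deep, kept at that level. Scored visually at 13–15 d versus controls (0 no effect; 100 complete control).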

[2] = tested on: sedge, umbrella (small-flower umbrella sedge, Cyperus difformis); assay: Test B flooded paddy test; settings: Cyperus difformis, 250 g ai/ha, Flood; 0 to 100 scale where 0 is no effect and 100 is complete control; read-out: Sedge, Umbrella plant response rating
Method in brief: as §1

[3] = tested on: rice (Oryra sativa); assay: Test B flooded paddy test; settings: Oryza sativa, 250 g ai/ha, Flood; 0 to 100 scale where 0 is no effect and 100 is complete control; read-out: Rice plant response rating
Method in brief: as §1

[4] = tested on: barnyardgrass (Echinochloa crus-galli); assay: Test B flooded paddy test; settings: Echinochloa crus-galli, 250 g ai/ha, Flood; 0 to 100 scale where 0 is no effect and 100 is complete control; read-out: Barnyardgrass plant response rating
Method in brief: as §1

[5] = tested on: giant foxtail (Setaria faberii); assay: Test A preemergence; settings: Setaria faberi, pre-emergence, 240 h, 0 to 100 scale where 0 is no effect and 100 is complete control, read-out: Foxtail, Giant plant response rating
Method in brief: (§2)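 Preemergence directed soil spray on seeded pots, or postemergence application to plants 2–10 cm, one- to two-leaf. Solvent mixture non-phytotoxic, with surfactant. Scored ~10 d later, visually, 0–100 vs untreated.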

[6] = tested on: pigweed (Amaranthus retroflexus); assay: Test A preemergence; settings: Amaranthus retroflexus, pre-emergence, 240 h, 0 to 100 scale where 0 is no effect and 100 is complete control, read-out: Pigweed plant response rating
[7] = tested on: ragweed (common ragweed, Ambrosia elatior); assay: Test A preemergence; settings: Ambrosia artemisiifolia, pre-emergence, 240 h, 0 to 100 scale where 0 is no effect and 100 is complete control, read-out: Ragweed plant response rating
Method in brief: as §2

[8] = tested on: Kochia (Kochia scoparia); assay: Test A preemergence; settings: Bassia scoparia, pre-emergence, 240 h, 0 to 100 scale where 0 is no effect and 100 is complete control, read-out: Kochia plant response rating
Method in brief: as §2

[9] = tested on: barnyardgrass (Echinochloa crus-galli); assay: Test A preemergence; settings: Echinochloa crus-galli, pre-emergence, 240 h, 0 to 100 scale where 0 is no effect and 100 is complete control, read-out: Barnyardgrass plant response rating
Method in brief: as §2

[10] = tested on: ryegrass, Italian (Italian ryegrass, Lolium multiflorum); assay: Test A preemergence; settings: Lolium multiflorum, pre-emergence, 240 h, 0 to 100 scale where 0 is no effect and 100 is complete control, read-out: Ryegrass, Italian plant response rating
Method in brief: as §2

[11] = tested on: giant foxtail (Setaria faberii); assay: Test A postemergence; settings: Setaria faberi, post-emergence, 240 h
Method in brief: as §2

[12] = tested on: corn (Zea mays); assay: Test A postemergence; settings: Zea mays, post-emergence, 240 h
Method in brief: as §2

[13] = tested on: Galium (catchweed bedstraw, Galium aparine); assay: Test A postemergence; settings: Galium, post-emergence, 240 h
Method in brief: as §2

[14] = tested on: pigweed (Amaranthus retroflexus); assay: Test A postemergence; settings: Amaranthus retroflexus, post-emergence, 240 h
Method in brief: as §2

[15] = tested on: wheat (Triticum aestivum); assay: Test A postemergence; settings: Triticum aestivum, post-emergence, 240 h
Method in brief: as §2

[16] = tested on: ragweed (common ragweed, Ambrosia elatior); assay: Test A postemergence; settings: Ambrosia artemisiifolia, post-emergence, 240 h
Method in brief: as §2

[17] = tested on: Kochia (Kochia scoparia); assay: Test A postemergence; settings: Bassia scoparia, post-emergence, 240 h
Method in brief: as §2

[18] = tested on: blackgrass (Alopecurus myosuroides); assay: Test A postemergence; settings: Alopecurus myosuroides, post-emergence, 240 h
Method in brief: as §2

[19] = tested on: barnyardgrass (Echinochloa crus-galli); assay: Test A postemergence; settings: Echinochloa crus-galli, post-emergence, 240 h
Method in brief: as §2

[20] = tested on: ryegrass, Italian (Italian ryegrass, Lolium multiflorum); assay: Test A postemergence; settings: Lolium multiflorum, post-emergence, 240 h
Method in brief: as §2

[21] = 125 g ai/ha, preemergence, approx. 10 d

## CN1C[C@H](c2csc3c2CCOC3)[C@@H](C(=O)Nc2ccc(F)c(F)c2F)C1=O [Compound 1077]
[1]
  pest or weed control at 250 g/ha: 90%
[2]
  pest or weed control at 250 g/ha: 0%
[3]
  pest or weed control at 250 g/ha: 15%
[4]
  pest or weed control at 250 g/ha: 85%
[5]; 31 g ai/ha, Preemergence
  pest or weed control at 31 g/ha: 100%
[5]; [21]
  pest or weed control at 125 g/ha: 100%
[6]; 31 g ai/ha, Preemergence
  pest or weed control at 31 g/ha: 0%
[6]; [21]
  pest or weed control at 125 g/ha: 0%
[7]; 31 g ai/ha, Preemergence
  pest or weed control at 31 g/ha: 0%
[7]; [21]
  pest or weed control at 125 g/ha: 0%
[8]; 31 g ai/ha, Preemergence
  pest or weed control at 31 g/ha: 0%
[8]; [21]
  pest or weed control at 125 g/ha: 20%
[9]; 31 g ai/ha, Preemergence
  pest or weed control at 31 g/ha: 80%
[9]; [21]
  pest or weed control at 125 g/ha: 100%
[10]; 31 g ai/ha, Preemergence
  pest or weed control at 31 g/ha: 0%
[10]; [21]
  pest or weed control at 125 g/ha: 10%
[11]; 125 g ai/ha, postemergence, visual injury on 0 to 100 scale (0 no effect, 100 complete control), approx. 10 d, read-out: Foxtail, Giant plant response rating
  pest or weed control at 125 g/ha: 90%
[11]; Postemergence, 31 g ai/ha, visual injury after approx. 10 d, 0 to 100 scale, 0 no effect, 100 complete control, read-out: Plant response rating, Foxtail, Giant
  pest or weed control at 31 g/ha: 50%
[12]; 125 g ai/ha, postemergence, visual injury on 0 to 100 scale (0 no effect, 100 complete control), approx. 10 d, read-out: Corn plant response rating
  plant injury at 125 g/ha: 10%
[12]; Postemergence, 31 g ai/ha, visual injury after approx. 10 d, 0 to 100 scale, 0 no effect, 100 complete control
  Corn plant response rating (crop injury, 0 = no effect, 100 = complete kill) at 31 g/ha: 0%
[13]; 125 g ai/ha, postemergence, visual injury on 0 to 100 scale (0 no effect, 100 complete control), approx. 10 d, read-out: Galium plant response rating
  pest or weed control at 125 g/ha: 70%
[13]; Postemergence, 31 g ai/ha, visual injury after approx. 10 d, 0 to 100 scale, 0 no effect, 100 complete control, read-out: Plant response rating, Galium
  pest or weed control at 31 g/ha: 20%
[14]; 125 g ai/ha, postemergence, visual injury on 0 to 100 scale (0 no effect, 100 complete control), approx. 10 d, read-out: Pigweed plant response rating
  pest or weed control at 125 g/ha: 0%
[14]; Postemergence, 31 g ai/ha, visual injury after approx. 10 d, 0 to 100 scale, 0 no effect, 100 complete control, read-out: Plant response rating, Pigweed
  pest or weed control at 31 g/ha: 0%
[15]; 125 g ai/ha, postemergence, visual injury on 0 to 100 scale (0 no effect, 100 complete control), approx. 10 d, read-out: Wheat plant response rating
  plant injury at 125 g/ha: 0%
[15]; Postemergence, 31 g ai/ha, visual injury after approx. 10 d, 0 to 100 scale, 0 no effect, 100 complete control, read-out: Plant response rating, Wheat
  plant injury at 31 g/ha: 0%
[16]; 125 g ai/ha, postemergence, visual injury on 0 to 100 scale (0 no effect, 100 complete control), approx. 10 d, read-out: Ragweed plant response rating
  pest or weed control at 125 g/ha: 0%
[16]; Postemergence, 31 g ai/ha, visual injury after approx. 10 d, 0 to 100 scale, 0 no effect, 100 complete control, read-out: Plant response rating, Ragweed
  pest or weed control at 31 g/ha: 0%
[17]; 125 g ai/ha, postemergence, visual injury on 0 to 100 scale (0 no effect, 100 complete control), approx. 10 d, read-out: Kochia plant response rating
  pest or weed control at 125 g/ha: 0%
[17]; Postemergence, 31 g ai/ha, visual injury after approx. 10 d, 0 to 100 scale, 0 no effect, 100 complete control, read-out: Plant response rating, Kochia
  pest or weed control at 31 g/ha: 0%
[18]; 125 g ai/ha, postemergence, visual injury on 0 to 100 scale (0 no effect, 100 complete control), approx. 10 d, read-out: Blackgrass plant response rating
  pest or weed control at 125 g/ha: 30%
[18]; Postemergence, 31 g ai/ha, visual injury after approx. 10 d, 0 to 100 scale, 0 no effect, 100 complete control, read-out: Plant response rating, Blackgrass
  pest or weed control at 31 g/ha: 0%
[19]; 125 g ai/ha, postemergence, visual injury on 0 to 100 scale (0 no effect, 100 complete control), approx. 10 d, read-out: Barnyardgrass plant response rating
  pest or weed control at 125 g/ha: 90%
[19]; Postemergence, 31 g ai/ha, visual injury after approx. 10 d, 0 to 100 scale, 0 no effect, 100 complete control, read-out: Plant response rating, Barnyardgrass
  pest or weed control at 31 g/ha: 70%
[20]; 125 g ai/ha, postemergence, visual injury on 0 to 100 scale (0 no effect, 100 complete control), approx. 10 d, read-out: Ryegrass, Italian plant response rating
  pest or weed control at 125 g/ha: 20%
[20]; Postemergence, 31 g ai/ha, visual injury after approx. 10 d, 0 to 100 scale, 0 no effect, 100 complete control, read-out: Plant response rating, Ryegrass, Italian
  pest or weed control at 31 g/ha: 0%
